Test results taken from patent US11965039B2, “Compstatin analogues and their medical uses” (priority 2018, dated 2024).
Like-named read-outs stand apart in the source and are kept apart here. Starred links: 1 amine or outer side, 2 acyl side, 3 side chain; linkers in the order of their positions; H or OH if unused. Positions of bridges follow the written chain, without caps; N, C: chain ends. Non-standard residues stand in square brackets, D forms with d. Residues, ends and D or L forms follow the SMILES beside them. Groups on a side chain read outwards from the residue. *: point of attachment. Trp(1-Me) = Cn1cc(C[C@H](N)C(=O)O)c2ccccc21; C18 diacid = O=C(O)CCCCCCCCCCCCCCCCC(=O)*; γGlu = O=C(O)[C@H](CCC(=O)[*:2])N[*:1]; Sar = CNCC(=O)O

Experiments:
[1] = tested on: classical complement pathway; experiment: In vitro haemolysis assay (inhibition of classical complement pathway); assay type: cell-based, human
Method: The in vitro effect of the compounds of the present invention was assessed by measuring their inhibitory effect of the classical complement pathway in a haemolysis assay. Briefly, compounds of the present invention and reference compounds were dissolved in DMSO and diluted in Tris/Casein Assay Buffer (10 mM Tris, 145 mM NaCl, 0.5 mM MgCl2, 0.15 mM CaCl2), and 0.1% W/V Casein, adjusted to pH 7.4) as 9-point serial dilutions in a 96 well plate. Sensitized sheep red blood cells (RBC) coated with rabbit anti-sheep erythrocyte antiserum (Complement Technology, Inc., TX, USA) were washed in Tris/Casein Assay Buffer. […] from each well of diluted compound was added to a 96-well plate containing 50 μL diluted human serum (Complement Technology, Inc., TX, USA) and incubated for 15 minutes at room temperature. The serum dilution factor was optimized for every serum batch to obtain 70-90% of maximal haemolysis using the protocol. Then 50 μL sensitized sheep red blood cells were added to all wells (10^7 per well). After 30 minutes of incubation at 37 QC with gentle agitation, the reaction was stopped by addition of 50 μL Tris STOP Buffer per well (10 mM EDTA, 10 mM Tris, 145 mM NaCl adjusted to pH 7.4). The RBCs were then removed by centrifugation and the resulting supernatant measured for hemolysis by absorbance at 405 nm. The response was normalized relative to a positive and negative control (vehicle) to calculate the IC50 from the concentration response curve using the 4-parameter logistic (4PL) nonlinear model for curve fitting.

[2] = Solubility test at 10 mg/mL (visual inspection and light scattering); assay type: physicochemical; conditions: for Solubility, Condition 1: Acetate pH 4; for Solubility, Condition 2: Acetate pH 5; for Solubility, Condition 3: Phosphate pH 6; for Solubility, Condition 4: Phosphate pH 7; for Solubility, Condition 5: Phosphate pH 7.5
Method: The solubility of compounds was assessed by measuring light scattering over a pH interval from pH 4 to pH 7.5.
Compounds were dissolved in a stock solution of 20 mg/mL in H2O at pH 2.5 or pH 10. These stock solutions were diluted 1:1 with 200 mM buffered solution to reach a final solution of 10 mg/mL compound in 100 mM buffer. The 5 investigated conditions were (1) acetate pH 4.0, (2) acetate pH 5.0, (3) phosphate pH 6.0, (4) phosphate pH 7 and (5) phosphate pH 7.5.
Visual inspection included manually checking the 96 well plate for wells that are clear or non-clear. In addition to this a picture of the 96 well plate is taken.
Absorbance was measured at four wavelengths: 280 nm, 325 nm, 340 nm and 360 nm in an UV transparent 96 well microplate in a SpectraMax 190 microplate reader (Molecular Devices).
The criteria for this was a combination of visual inspection and light scattering not exceeding 0.1 AU, where values below 0.1 AU are good in visually clear samples.

[3] = Table 5, different residues at position 3 of Ac-IC(1)XWQDWGEHRC(1)T-NH2, read-out: IC50, CP hemolysis
[4] = human serum, sensitized sheep red blood cells, Table 4, valine 3 vs isoleucine 3 pairs, read-out: CP hemolysis IC50
[5] = human serum, sensitized sheep red blood cells, Table 3, given as upper bounds, read-out: IC50, inhibition of hemolysis

Work on `CC[C@H](C)[C@H](NC(C)=O)C(=O)N[C@H]1CSSC[C@@H](C(=O)N[C@H](C(N)=O)[C@@H](C)O)NC(=O)[C@H](CCCNC(=N)N)NC(=O)[C@H](Cc2c[nH]cn2)NC(=O)[C@H](CCC(=O)O)NC(=O)CNC(=O)[C@H](Cc2c[nH]c3ccccc23)NC(=O)[C@H](CC(=O)O)NC(=O)[C@H](CCC(N)=O)NC(=O)[C@H](Cc2c[nH]c3ccccc23)NC(=O)[C@H](C(C)C)NC1=O` [A, reference compound] (Ac-ICVWQDWGEHRCT-NH2; disulfide 2-12) yielded an IC50 [1, 3] of 0.35 µM and an IC50 [1, 4] of 0.35 µM.

For `CC[C@H](C)[C@H](NC(C)=O)C(=O)N[C@H]1CSSC[C@@H](C(=O)N[C@H](C(N)=O)[C@@H](C)O)NC(=O)[C@H](CCCNC(=N)N)NC(=O)[C@H](Cc2c[nH]cn2)NC(=O)[C@H](Cc2c[nH]cn2)NC(=O)CNC(=O)[C@H](Cc2c[nH]c3ccccc23)NC(=O)[C@H](CC(=O)O)NC(=O)[C@H](CCC(N)=O)NC(=O)[C@H](C(C)C)NC(=O)[C@H](C(C)C)NC1=O` [Ac-compstatin, reference compound], the IC50 ([1]; human serum, sensitized sheep red blood cells, Table 3, cells printed in μM, read-out: IC50, inhibition of hemolysis) was over 5 µM.

`CC[C@H](C)[C@H](NC(C)=O)C(=O)N[C@H]1CSSC[C@@H](C(=O)N[C@H](C(N)=O)[C@@H](C)O)NC(=O)[C@H](CCCNC(=N)N)NC(=O)[C@H](Cc2c[nH]cn2)NC(=O)[C@H](CO)NC(=O)CNC(=O)[C@H](Cc2c[nH]c3ccccc23)NC(=O)[C@H](CC(=O)O)NC(=O)[C@H](CCC(N)=O)NC(=O)[C@H](Cc2c[nH]c3ccccc23)NC(=O)[C@H](C(C)C)NC1=O` [B, reference compound] (Ac-ICVWQDWGSHRCT-NH2; disulfide 2-12) gave an IC50 [1, 4] of 0.36 µM.

In the case of `CC[C@H](C)[C@H](NC(=O)[C@H](C)NC(=O)[C@H](CO)NC(=O)[C@H](CO)NC(=O)[C@H](CCC(=O)O)NC(C)=O)C(=O)N[C@H]1CSSC[C@@H](C(=O)N[C@H](C(N)=O)[C@@H](C)O)NC(=O)[C@H](CCCNC(=N)N)NC(=O)[C@H](Cc2c[nH]cn2)NC(=O)[C@H](CCC(=O)O)NC(=O)CNC(=O)[C@H](Cc2c[nH]c3ccccc23)NC(=O)[C@H](CC(=O)O)NC(=O)[C@H](CCC(N)=O)NC(=O)[C@H](Cc2c[nH]c3ccccc23)NC(=O)[C@H](C(C)C)NC1=O` [C, reference compound] (Ac-ESSAICVWQDWGEHRCT-NH2; disulfide 6-16), the IC50 [1, 4] is reported as 0.3 µM.

`CC[C@H](C)[C@H](NC(C)=O)C(=O)N[C@H]1CSSC[C@@H](C(=O)N[C@H](C(N)=O)[C@@H](C)O)NC(=O)[C@H](CCCNC(=N)N)NC(=O)[C@H](Cc2c[nH]cn2)NC(=O)[C@H](CCC(=O)O)NC(=O)CNC(=O)[C@H](Cc2c[nH]c3ccccc23)NC(=O)[C@H](CC(=O)O)NC(=O)[C@H](CCC(N)=O)NC(=O)[C@H](Cc2c[nH]c3ccccc23)NC(=O)[C@H]([C@@H](C)CC)NC1=O` [Compound 2] (Ac-ICIWQDWGEHRCT-NH2; disulfide 2-12) gave an IC50 [1, 3] of under 0.1 µM, an IC50 [1, 5] of under 0.1 µM and an IC50 [1, 4] of 0.094 µM.

With `CC[C@H](C)[C@H](NC(C)=O)C(=O)N[C@H]1CSSC[C@@H](C(=O)N[C@H](C(N)=O)[C@@H](C)O)NC(=O)[C@H](CCCNC(=N)N)NC(=O)[C@H](Cc2c[nH]cn2)NC(=O)[C@H](C)NC(=O)CNC(=O)[C@H](Cc2c[nH]c3ccccc23)NC(=O)[C@H](CC(=O)O)NC(=O)[C@H](CCC(N)=O)NC(=O)[C@H](Cc2c[nH]c3ccccc23)NC(=O)[C@H](C(C)C)NC1=O` [Compound 4W9A, reference compound] the IC50 ([1]; human serum, sensitized sheep red blood cells, Table 2, read-out: CP hemolysis IC50) was 0.25 µM and the IC50 [1, 5] was under 0.5 µM.

For `CC[C@H](C)[C@H](NC(C)=O)C(=O)N[C@H]1CSSC[C@@H](C(=O)N[C@H](C(N)=O)[C@@H](C)O)NC(=O)[C@H](CCCNC(=N)N)NC(=O)[C@H](Cc2c[nH]cn2)NC(=O)[C@H](CCC(=O)O)NC(=O)CNC(=O)[C@H](Cc2c[nH]c3ccccc23)NC(=O)[C@H](CC(=O)O)NC(=O)[C@H](CCC(N)=O)NC(=O)[C@H](Cc2cn(C)c3ccccc23)NC(=O)[C@H]([C@@H](C)CC)NC1=O` [Compound 4] (Ac-ICI[Trp(1-Me)]QDWGEHRCT-NH2; disulfide 2-12), the IC50 [1, 5] was under 0.1 µM.

Compound `CC[C@H](C)[C@H](NC(C)=O)C(=O)N[C@H]1CSSC[C@@H](C(=O)N[C@H](C(N)=O)[C@@H](C)O)NC(=O)[C@H](CCCNC(=N)N)NC(=O)[C@H](Cc2c[nH]cn2)NC(=O)[C@H](CCCCN)NC(=O)CNC(=O)[C@H](Cc2c[nH]c3ccccc23)NC(=O)[C@H](CC(=O)O)NC(=O)[C@H](CCC(N)=O)NC(=O)[C@H](Cc2c[nH]c3ccccc23)NC(=O)[C@H]([C@@H](C)CC)NC1=O` [Compound 5] (Ac-ICIWQDWGKHRCT-NH2; disulfide 2-12) has an IC50 [1, 5] of under 0.25 µM.

For `CC[C@H](C)[C@@H]1NC(=O)[C@@H](NC(=O)[C@H](Cc2ccc(O)cc2)NC(=O)[C@H](C)NC(=O)[C@H](CO)NC(C)=O)CSSC[C@@H](C(=O)N(C)CC(=O)N[C@@H](CCC(=O)O)C(=O)N[C@@H](CCCCNC(=O)CC[C@H](NC(=O)CNC(=O)[C@H](CCCCN)NC(=O)CC[C@H](NC(=O)CCCCCCCCCCCCCCCCC(=O)O)C(=O)O)C(=O)O)C(N)=O)NC(=O)[C@H](CCCNC(=N)N)NC(=O)[C@H](Cc2c[nH]cn2)NC(=O)[C@H](CCC(=O)O)NC(=O)CNC(=O)[C@H](Cc2c[nH]c3ccccc23)NC(=O)[C@H](CC(=O)O)NC(=O)[C@H](CCC(N)=O)NC(=O)[C@H](Cc2cn(C)c3ccccc23)NC1=O` [Compound 105] (Ac-SAYCI[Trp(1-Me)]QDWGEHRC[Sar]EK([γGlu-Gly-Lys-γGlu-C18 diacid])-NH2; disulfide 4-14), the “Solubility, Condition 1” value [2] was “− (“−” denotes lack of solubility at the given condition, as UV absorbance at 340 nm exceeds 0.1 AU and/or it is visibly turbid or contains particles)”, the “Solubility, Condition 2” value [2] was “− (“−” denotes lack of solubility at the given condition, as UV absorbance at 340 nm exceeds 0.1 AU and/or it is visibly turbid or contains particles)” and the “Solubility, Condition 3” value [2] was “+ (“+” denotes solubility at the given condition, as determined by UV absorbance being less than 0.1 AU at 340 nm and the sample being clear when manually inspected)”. For the same compound, the “Solubility, Condition 4” value [2] was “+ (“+” denotes solubility at the given condition, as determined by UV absorbance being less than 0.1 AU at 340 nm and the sample being clear when manually inspected)” and the “Solubility, Condition 5” value [2] was “+ (“+” denotes solubility at the given condition, as determined by UV absorbance being less than 0.1 AU at 340 nm and the sample being clear when manually inspected)”.

In the case of `CC[C@H](C)[C@@H]1NC(=O)[C@@H](NC(=O)[C@H](Cc2ccc(O)cc2)NC(=O)[C@H](CCC(=O)O)NC(=O)[C@H](CO)NC(C)=O)CSSC[C@@H](C(=O)N(C)CC(=O)N[C@@H](CCC(=O)O)C(=O)NCC(=O)N[C@@H](CCC(=O)O)C(=O)N[C@@H](CCCCNC(=O)CC[C@H](NC(=O)[C@H](CCCCN)NC(=O)CC[C@H](NC(=O)CCCCCCCCCCCCCCCCC(=O)O)C(=O)O)C(=O)O)C(N)=O)NC(=O)[C@H](CCCNC(=N)N)NC(=O)[C@H](Cc2c[nH]cn2)NC(=O)[C@H](CCC(=O)O)NC(=O)CNC(=O)[C@H](Cc2c[nH]c3ccccc23)NC(=O)[C@H](CC(=O)O)NC(=O)[C@H](CCC(N)=O)NC(=O)[C@H](Cc2cn(C)c3ccccc23)NC1=O` [Compound 116] (Ac-SEYCI[Trp(1-Me)]QDWGEHRC[Sar]EGEK([γGlu-Lys-γGlu-C18 diacid])-NH2; disulfide 4-14), the “Solubility, Condition 1” value [2] is reported as “− (“−” denotes lack of solubility at the given condition, as UV absorbance at 340 nm exceeds 0.1 AU and/or it is visibly turbid or contains particles)”, the “Solubility, Condition 2” value [2] is reported as “− (“−” denotes lack of solubility at the given condition, as UV absorbance at 340 nm exceeds 0.1 AU and/or it is visibly turbid or contains particles)” and the “Solubility, Condition 3” value [2] is reported as “+ (“+” denotes solubility at the given condition, as determined by UV absorbance being less than 0.1 AU at 340 nm and the sample being clear when manually inspected)”. For the same compound, the “Solubility, Condition 4” value [2] was “+ (“+” denotes solubility at the given condition, as determined by UV absorbance being less than 0.1 AU at 340 nm and the sample being clear when manually inspected)” and the “Solubility, Condition 5” value [2] was “+ (“+” denotes solubility at the given condition, as determined by UV absorbance being less than 0.1 AU at 340 nm and the sample being clear when manually inspected)”.
